In brackets after ≈: the same amount, converted by molar mass.
What was measured:
Format in all cases: cell-based
Streptococcus suis 701 [1] = assay: Combination test, checkerboard, % inhibition; details: S. suis 701
Protocol: (§1) Strains were stored at −80° C. in appropriate media with glycerol, thawed and cultured according to conventional practices.
(§2) The tests were conducted using the microdilution method in a 96-well plate to be microtitered with the medium and culture conditions appropriate for the strains. Bacterial strains (10^5-10^6 CFU/ml) were incubated with the compounds to be tested, while control strains, when necessary, were grown in media containing 3.5% ethanol to exclude an inhibitory effect of any ethanol present in the stock solutions. After incubation, MIC was defined as the lowest concentration resulting in zero absorbance at 630 nm, recorded with Varioskan® LUX Multimode Microplat Reader (Thermo Fisher Scientific). For each test, the percentage of inhibition (%) was calculated with respect to the relative control.
(§3) After phase 1, the strains were tested with associations at sub-effective doses of AB and OA or NIC in a 2×2 checkerboard model. Specifically, two sub-effective doses of AB were associated with two sub-effective doses of OA or NIC (half and one-quarter of MICs) as shown in FIG. 1.
(§4) The % indicate the percentage of inhibition (compounds alone and combinations).
(§5) Tables 4 to 7 show the % of inhibition of the components of the associations alone, at the effective concentrations shown in Tables 2 and 3, and at the sub-effective concentrations (half and one-quarter of MICs), and the % of inhibition of the associations.

Streptococcus suis 702 [2] = assay: Combination test, checkerboard, % inhibition; details: S. suis 702
Protocol: as §1, §2, §3, §4, §5

Escherichia Coli K88 95 [3] = assay: Combination test, checkerboard, % inhibition; details: E. coli 95
Protocol: as §1, §2, §3, §4, §5

Escherichia coli K88 97 [4] = assay: Combination test, checkerboard, % inhibition; details: E. coli 97
Protocol: as §1, §2, §3, §4, §5

Streptococcus suis 701 [5] = assay: Individual tests, microdilution MIC; details: Streptococcus suis, 701, read-out: MIC values
Protocol: as §1
(§6) The ABs shown in Tables 2 and 3 below, all obtained from Aplha Aesar, were tested. The OAs used are shown in Tables 2 and 3 below, all obtained from Merck. The stock solutions were prepared appropriately and in appropriate way and media for the different strains and could contain 3.5% ethanol to increase solubility.
as §2
(§7) ABs were tested in the range 64-0.13 ppm, OAs in the range […] and NICs in the range 7.5-0.06 nM.

Streptococcus suis 702 [6] = assay: Individual tests, microdilution MIC; details: Streptococcus suis, 702, read-out: MIC values
Protocol: as §1, §6, §2, §7

Escherichia Coli K88 95 [7] = assay: Individual tests, microdilution MIC; details: Escherichia coli, COLIK8895, read-out: MIC values
Protocol: as §1, §6, §2, §7

Escherichia coli K88 97 [8] = assay: Individual tests, microdilution MIC; details: Escherichia coli, K8897, read-out: MIC values
Protocol: as §1, §6, §2, §7

## O=C(O)c1ccccc1 [Benzoic Acid, benzoic acid]
Streptococcus suis 701 [1]; BEN 12.5 mM alone
  % inhibition: 22%
Streptococcus suis 701 [1]; BEN 25 mM alone
  % inhibition: 51%
Streptococcus suis 702 [2]; BEN 6.25 mM alone
  % inhibition: 21%
Streptococcus suis 702 [2]; BEN 12.5 mM alone
  % inhibition: 39%
Escherichia Coli K88 95 [3]; BEN 12.5 mM alone
  % inhibition: 63%
Escherichia Coli K88 95 [3]; BEN 25 mM alone
  % inhibition: 90%
Escherichia coli K88 97 [4]; BEN 12.5 mM alone
  % inhibition: 79%
Escherichia coli K88 97 [4]; BEN 25 mM alone
  % inhibition: 97%
Streptococcus suis 701 [5]
  MIC: 50 mM (≈ 6110 µg/mL)
Streptococcus suis 702 [6]
  MIC: 25 mM (≈ 3050 µg/mL)
Escherichia Coli K88 95 [7]
  MIC: 50 mM (≈ 6110 µg/mL)
Escherichia coli K88 97 [8]
  MIC: 50 mM (≈ 6110 µg/mL)

Reference: patent US20250170105A1, “ASSOCIATION WITH ANTIBIOTIC ACTIVITY, PHARMACEUTICAL COMPOSITIONS CONTAINING IT AND THEIR USE IN THE TREATMENT OF INFECTIONS” (VETAGRO INTERNATIONAL S.R.L., priority 2022, published 2025)
